In ChEMBL document CHEMBL1127256, “Synthesis of C2-symmetric inhibitors of the HIV-1 protease, with N,N-substituted ethylenediamide and ethylenediamine linkers” (Bioorg Med Chem Lett, 1994) one finds inhibition and IC50 data, which are given here for eight compounds.

Calls of active or inactive are those of the source. The calls are words filed in the database; no cut-off is given here.

The target in assay [1] is Human immunodeficiency virus type 1 protease (Human immunodeficiency virus 1) (UniProt Q72874). The assay is described as follows: Percent inhibition of HIV-1 protease against substrate SQN-(pNO2)F-PIV (test II) at a concentration of 10 e-5M.
Assay [2] has the same target. In words: Percent inhibition of HIV-1 protease against substrate HKARVL-(NO2)F-EAnLSNH2 (test III) at a concentration of 10 e-5M; Inactive.
The target is the same in assay [3]. In words: Percent inhibition of HIV-1 protease against substrate TLNFPIS-AMC (test I) at a concentration of 10 e-5M.
Assay [4] has the same target. In words: Percent inhibition of HIV-1 protease against substrate HKARVL-(NO2)F-EAnLSNH2 (test III) at a concentration of 10 e-5M.
The target of assay [5] is Human immunodeficiency virus type 1 protease (Human immunodeficiency virus 1, UniProt Q72874). The assay is described as follows: Inhibitory concentration against HIV-1 protease.
The target of assay [6] is Human immunodeficiency virus type 1 protease (Human immunodeficiency virus 1) (UniProt Q72874). In words: Percent inhibition of HIV-1 protease against substrate SQN-(pNO2)F-PIV (test II) at a concentration of 10 e-5M; Inactive.
For assay [7] the target is unchanged. The assay is described as follows: Percent inhibition of HIV-1 protease against substrate TLNFPIS-AMC (test I) at a concentration of 10 e-5M; Inactive.

Take `CC(C)[C@H](NC(=O)OCc1ccccc1)C(=O)N[C@H](CNCCNC[C@H](Cc1ccccc1)NC(=O)[C@H](NC(=O)OCc1ccccc1)C(C)C)Cc1ccccc1`: the inhibition in assay [1] and in assay [3] was 3% in each case. Also, in assay [2], the inhibition result is “inactive”.

Regarding `CC(C)[C@H](NC(=O)OCc1ccccc1)C(=O)N[C@@H](Cc1ccccc1)CN(CCN(CC(=O)O)C[C@H](Cc1ccccc1)NC(=O)[C@H](NC(=O)OCc1ccccc1)C(C)C)CC(=O)O`, the inhibition in assay [1] came out at 53%; in assay [4], 33%; in assay [3], 36%.

For `CC(C)[C@H](NC(=O)OCc1ccccc1)C(=O)N[C@@H](Cc1ccccc1)[C@@H](O)[C@H](O)[C@H](Cc1ccccc1)NC(=O)[C@H](NC(=O)OCc1ccccc1)C(C)C`, in assay [5], the IC50 was less than 1 nM.

With `CC(C)[C@H](NC(=O)OCc1ccccc1)C(=O)N[C@@H](Cc1ccccc1)CN(C)CCN(C)C[C@H](Cc1ccccc1)NC(=O)[C@H](NC(=O)OCc1ccccc1)C(C)C`, the inhibition in assay [1] and in assay [3] was 3% throughout. The inhibition entry in assay [2] was “inactive”.

For the compound `CC(C)[C@H](NC(=O)OCc1ccccc1)C(=O)N[C@@H](Cc1ccccc1)CN(CCO)CCN(CCO)C[C@H](Cc1ccccc1)NC(=O)[C@H](NC(=O)OCc1ccccc1)C(C)C`, the figures for the inhibition in assay [1], in assay [4] and in assay [3] were 30%, 9% and 8%, respectively.

In turn, `CC(C)[C@H](NC(=O)OCc1ccccc1)C(=O)N[C@@H](Cc1ccccc1)C(=O)N(C)CCN(C)C(=O)[C@H](Cc1ccccc1)NC(=O)[C@H](NC(=O)OCc1ccccc1)C(C)C` came in with an inhibition in assay [4] of 16%. Besides, the inhibition result in assay [6] and in assay [7] was “inactive” each time.

In assay [4], `CC(C)[C@H](NC(=O)OCc1ccccc1)C(=O)N[C@@H](Cc1ccccc1)C(=O)NCCNC(=O)[C@H](Cc1ccccc1)NC(=O)[C@H](NC(=O)OCc1ccccc1)C(C)C` showed an inhibition of 25%. For the same compound, the inhibition entry in assay [6] and in assay [7] was “inactive” throughout.

With `CC(C)[C@H](NC(=O)OCc1ccccc1)C(=O)N[C@@H](Cc1ccccc1)CN(CCN(C[C@H](Cc1ccccc1)NC(=O)[C@H](NC(=O)OCc1ccccc1)C(C)C)C(=O)OC(C)(C)C)C(=O)OC(C)(C)C`, the inhibition in assay [1] and in assay [3] was 3% throughout. In addition, in assay [2], the inhibition entry is “inactive”.
